The values that follow come from ChEMBL document CHEMBL5230124, “Advances of CCR5 antagonists: From small molecules to macromolecules” (Eur J Med Chem, 2020).

Molecules are shown by their SMILES. Values after ≈ are worked out from the molar mass of the structure shown.

The EC50 is the midpoint of the concentration-response curve. Usually half-life stands for the time needed for the level to fall by half in the phase considered. Lower therefore signals fast loss. The term AUC denotes the area under the concentration-time curve, a measure of exposure. Higher therefore signals more exposure.

Series [1] can be described thus: Antifertility activity against human Spermatozoa assessed as decrease in sperm motility for 120 mins by hematocytometer analysis. Type of series: functional, cell-based.
Series [2] is described as follows: Half life in human plasma. Type of series: ADME, cell-free.
Series [3] can be described thus: AUC in Wistar rat at 10 mg/kg, IM administered as H3-lableled compound by scintillation counting method. Type of series: ADME, organism-based. On the set-up: dose 10 mg/kg, route im. The conditions noted are these: in vivo.
A short description of series [4]: Terminal half life in Wistar rat at 10 mg/kg, IM administered as H3-lableled compound by scintillation counting method. The format is ADME, organism-based. The conditions noted are these: in vivo.

Regarding `CCN(Cc1ccccc1)C(=O)C1CCN(CCCN(C(=O)C2CCN(C(C)=O)CC2)c2ccc(C)c(Cl)c2)CC1`, in series [1], the EC50 was 1500 µg/mL (≈ 2580 µM).
As to `CCCCOCCOc1ccc(-c2ccc3c(c2)/C=C(/C(=O)Nc2ccc([S@@+]([O-])Cc4cncn4CCC)cc2)CCCN3CC(C)C)cc1` [CENICRIVIROC], the half-life in series [2] was 30 h.
As to `Cc1nnc(C(C)C)n1[C@H]1C[C@H]2CC[C@@H](C1)N2CC[C@H](NC(=O)C1CCC(F)(F)CC1)c1ccccc1` [MARAVIROC], the AUC in series [3] was 567.17 ng·h/mL. Also, in series [4], the “beta t1/2” value turned out to be 53.23 h.
